Measurements taken from patent publication US8895558B2, “Arylpiperazine-containing pyrrole 3-carboxamide derivatives for treating depressive disorders” (Green Cross Corporation, priority 2008, dated 2014).
Structures can show the parent of a compound that is named as a salt.

What was measured:
[1] = molecular target: T1, human recombinant serotonin 5-HT2A receptor (Homo sapiens, UniProt P28223); experiment: Binding affinity for serotonin 5-HT2A receptor ([3H]Ketanserin); conditions: CHO-K1 expressed receptor, 1 nM [3H]Ketanserin
T1 construct: purchased PerkinElmer Life and Analytical Sciences, USA; host or cells: CHO-K1
Outline: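 Membranes from CHO-K1 cells expressing recombinant receptor (5 ug/well) incubated 60 min at 27 with 1 nM [3H]ketanserin in 50 mM Tris-HCl pH 7.4, 4 mM CaCl2, 0.1% ascorbic acid; mianserin 20 uM defined nonspecific binding. Filtration and counting; IC50 by nonlinear regression over 7-8 concentrations in duplicate.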

[2] = molecular target: T2, human recombinant 5-HT2C receptor (Homo sapiens, UniProt P28335); experiment: Binding affinity for serotonin 5-HT2C receptor ([3H]Mesulergine); conditions: CHO-K1 membranes, 1.3 nM [3H]Mesulergine
T2 construct: purchased PerkinElmer
T2 sequence (P28335 33-458): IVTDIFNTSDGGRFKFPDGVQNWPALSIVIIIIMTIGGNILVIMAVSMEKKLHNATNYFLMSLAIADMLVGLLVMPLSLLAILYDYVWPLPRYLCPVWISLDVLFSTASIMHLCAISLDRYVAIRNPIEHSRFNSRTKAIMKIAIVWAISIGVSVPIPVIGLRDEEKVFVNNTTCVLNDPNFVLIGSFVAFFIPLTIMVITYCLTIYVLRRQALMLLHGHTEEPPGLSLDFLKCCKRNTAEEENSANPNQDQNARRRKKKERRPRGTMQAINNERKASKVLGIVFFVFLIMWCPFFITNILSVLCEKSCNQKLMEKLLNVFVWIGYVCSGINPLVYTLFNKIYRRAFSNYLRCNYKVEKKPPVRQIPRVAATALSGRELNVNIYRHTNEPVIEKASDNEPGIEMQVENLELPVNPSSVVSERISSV
Outline: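 Competition binding with [3H]mesulergine; nonspecific binding defined with 100 uM mianserin. Incubation 60 min at 27, stopped by rapid filtration onto glass fiber filters presoaked in 0.5% PEI.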

[3] = molecular target: T3, human serotonin transporter (Homo sapiens, UniProt P31645); experiment: Binding affinity for serotonin transporter ([3H]Imipramine); conditions: HEK-293 membranes, 2 nM [3H]Imipramine
T3 construct: purchased PerkinElmer; host or cells: HEK-293
Outline: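 Membranes from HEK-293 cells expressing human serotonin transporter (5 ug/well) incubated with compound and 2 nM [3H]imipramine in 50 mM Tris-HCl pH 7.4, 120 mM NaCl, 5 mM KCl, 30 min at 27. Bound ligand separated by filtration onto glass fiber filters presoaked in 0.5% PEI, washed with ice-cold Tris-HCl/0.9% NaCl.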

T1 sequence (P28223 whole entry): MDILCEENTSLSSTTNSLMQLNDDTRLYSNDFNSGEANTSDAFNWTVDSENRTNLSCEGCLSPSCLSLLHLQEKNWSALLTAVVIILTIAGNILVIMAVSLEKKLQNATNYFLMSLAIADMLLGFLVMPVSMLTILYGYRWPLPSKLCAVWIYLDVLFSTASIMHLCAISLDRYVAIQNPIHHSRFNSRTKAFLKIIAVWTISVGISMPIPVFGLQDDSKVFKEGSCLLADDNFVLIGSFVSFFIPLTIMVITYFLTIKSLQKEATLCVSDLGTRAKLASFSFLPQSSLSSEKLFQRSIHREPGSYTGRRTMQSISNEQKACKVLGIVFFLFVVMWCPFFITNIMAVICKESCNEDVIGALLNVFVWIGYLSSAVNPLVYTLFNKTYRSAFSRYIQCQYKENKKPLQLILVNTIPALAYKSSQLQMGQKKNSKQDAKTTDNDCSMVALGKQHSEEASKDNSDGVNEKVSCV
T3 sequence (P31645 whole entry): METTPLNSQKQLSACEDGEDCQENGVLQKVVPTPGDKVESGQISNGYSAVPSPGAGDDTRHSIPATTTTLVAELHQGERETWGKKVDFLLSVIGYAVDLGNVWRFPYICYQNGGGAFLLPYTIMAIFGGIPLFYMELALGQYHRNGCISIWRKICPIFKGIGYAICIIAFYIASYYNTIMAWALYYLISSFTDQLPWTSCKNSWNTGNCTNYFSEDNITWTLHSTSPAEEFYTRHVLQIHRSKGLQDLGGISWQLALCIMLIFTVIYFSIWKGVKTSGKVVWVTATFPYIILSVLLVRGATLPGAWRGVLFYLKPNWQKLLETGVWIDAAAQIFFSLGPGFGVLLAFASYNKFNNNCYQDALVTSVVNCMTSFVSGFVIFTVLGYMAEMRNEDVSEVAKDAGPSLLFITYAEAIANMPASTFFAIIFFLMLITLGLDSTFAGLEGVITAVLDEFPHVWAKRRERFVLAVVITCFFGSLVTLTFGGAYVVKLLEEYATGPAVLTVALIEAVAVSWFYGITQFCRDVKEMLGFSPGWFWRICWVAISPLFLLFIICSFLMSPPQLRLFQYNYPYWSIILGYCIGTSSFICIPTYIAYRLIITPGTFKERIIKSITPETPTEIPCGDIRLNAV

Compound	IC50 [1] [µM]	IC50 [2] [µM]	IC50 [3] [µM]
Cc1c(C(=O)NCCCN2CCN(c3cccc(Cl)c3Cl)CC2)cc(-c2cccnc2)n1C [Example 100, N-(3-(4-(2,3-dichlorophenyl)piperazin-1-yl)propyl)-1,2-dimethyl-5-(pyridin-3-yl)-1H-pyrrole-3-carboxamide]	0.049	0.209	0.092
Cc1c(C(=O)NCCCN2CCN(c3cccc(Cl)c3Cl)CC2)cc(-c2ccccc2)n1CC(C)C [Example 28, N-(3-(4-(2,3-dichlorophenyl)piperazin-1-yl)propyl)-1-isobutyl-2-methyl-5-phenyl-1H-pyrrole-3-carboxamide]	0.406	0.342	0.381
Cc1cccc(N2CCN(CCCNC(=O)c3cc(-c4ccc(Cl)cc4)[nH]c3C)CC2)c1C [Example 44, 5-(4-chlorophenyl)-N-(3-(4-(2,3-dimethylphenyl)piperazin-1-yl)propyl)-2-methyl-1H-pyrrole-3-carboxamide hydrochloride]	0.092	0.189	0.019
Cc1[nH]c(-c2ccc(Cl)cc2)cc1C(=O)NCCCCN1CCN(c2cccc(Cl)c2Cl)CC1 [Example 47, 5-(4-chlorophenyl)-N-(4-(4-(2,3-dichlorophenyl)piperazin-1-yl)butyl)-2-methyl-1H-pyrrole-3-carboxamide hydrochloride]	0.056	0.062	0.122
Cc1cccc(N2CCN(CCCNC(=O)c3cc(-c4ccccc4)n(Cc4ccccc4)c3C)CC2)c1C [Example 18, 1-Benzyl-N-(3-(4-(2,3-dimethylphenyl)piperazin-1-yl)propyl)-2-methyl-5-phenyl-1H-pyrrole-3-carboxamide]	0.224	0.297	0.0143
CCCn1c(-c2ccccc2)cc(C(=O)NCCCCN2CCN(c3cccc(Cl)c3Cl)CC2)c1C [Example 34, N-(4-(4-(2,3-dichlorophenyl)piperazin-1-yl)butyl)-2-methyl-5-phenyl-1-propyl-1H-pyrrole-3-carboxamide hydrochloride]	0.104	0.0209	0.076
C=CCCc1cc(C(=O)NCCCN2CCN(c3cccc(Cl)c3Cl)CC2)c(C)n1C [Example 136, 5-(but-3-enyl)-N-(3-(4-(2,3-dichlorophenyl)piperazin-1-yl)propyl)-1,2-dimethyl-1H-pyrrole-3-carboxamide]	0.108	0.173	0.347
Cc1c(C(=O)NCCCN2CCN(c3cccc(Cl)c3Cl)CC2)c(C)n(C)c1-c1ccccc1 [Example 79, N-(3-(4-(2,3-dichlorophenyl)piperazin-1-yl)propyl)-1,2,4-trimethyl-5-phenyl-1H-pyrrole-3-carboxamide hydrochloride]	0.033	0.016	0.08
Cc1c(C(=O)NCCCCN2CCN(c3cccc(Cl)c3Cl)CC2)cc(-c2ccccc2)n1C [Example 36, N-(4-(4-(2,3-dichlorophenyl)piperazin-1-yl)butyl)-1,2-dimethyl-5-phenyl-1H-pyrrole-3-carboxamide hydrochloride]	0.028	0.032	0.093
CCCn1c(-c2ccccc2)cc(C(=O)NCCN2CCN(c3cccc(Cl)c3Cl)CC2)c1C [Example 39, N-(2-(4-(2,3-dichlorophenyl)piperazin-1-yl)ethyl)-2-methyl-5-phenyl-1-propyl-1H-pyrrole-3-carboxamide hydrochloride]	0.408	0.31	0.032
CCn1c(-c2ccccc2)cc(C(=O)NCCN2CCN(c3cccc(Cl)c3Cl)CC2)c1C [Example 49, N-(2-(4-(2,3-dichlorophenyl)piperazin-1-yl)ethyl)-1-ethyl-2-methyl-5-phenyl-1H-pyrrole-3-carboxamide hydrochloride]	0.1	0.096	0.085
Cc1cccc(N2CCN(CCCNC(=O)c3cc(-c4ccccc4)[nH]c3C)CC2)c1C [Example 24, N-(3-(4-(2,3-dimethylphenyl)piperazin-1-yl)propyl)-2-methyl-5-phenyl-1H-pyrrole-3-carboxamide]	0.3	0.615	0.077
Cc1cccc(N2CCN(CCCCNC(=O)c3cc(-c4ccccc4)[nH]c3C)CC2)c1C [Example 40, N-(4-(4-(2,3-dimethylphenyl)piperazin-1-yl)butyl)-2-methyl-5-phenyl-1H-pyrrole-3-carboxamide hydrochloride]	0.01	0.063	0.021
CCCn1c(-c2ccccc2)cc(C(=O)NCCCN2CCN(c3ccccc3Br)CC2)c1C [Example 88, N-(3-(4-(2-bromophenyl)piperazin-1-yl)propyl)-2-methyl-5-phenyl-1-propyl-1H-pyrrole-3-carboxamide]	0.221	0.633	0.225
CCCn1c(-c2cccnc2)cc(C(=O)NCCCN2CCN(c3cccc(Cl)c3Cl)CC2)c1C [Example 101, N-(3-(4-(2,3-dichlorophenyl)piperazin-1-yl)propyl)-2-methyl-1-propyl-5-(pyridin-3-yl)-1H-pyrrole-3-carboxamide]	0.046	0.344	0.133
Cc1[nH]c(-c2ccccc2)c(C)c1C(=O)NCCN1CCN(c2cccc(Cl)c2Cl)CC1 [Example 76, N-(2-(4-(2,3-dichlorophenyl)piperazin-1-yl)ethyl)-2,4-dimethyl-5-phenyl-1H-pyrrole-3-carboxamide hydrochloride]	0.037	0.013	0.162
CCn1c(-c2ccccc2)cc(C(=O)NCCCN2CCN(c3cccc(Cl)c3Cl)CC2)c1C [Example 11, N-(3-(4-(2,3-dichlorophenyl)piperazin-1-yl)propyl)-1-ethyl-2-methyl-5-phenyl-1H-pyrrole-3-carboxamide]	0.376	0.066	0.182
Cc1c(C(=O)NCCCN2CCN(c3cccc(Cl)c3Cl)CC2)cc(-c2ccc(Cl)cc2)n1C [Example 62, 5-(4-chlorophenyl)-N-(3-(4-(2,3-dichlorophenyl)piperazin-1-yl)propyl)-1,2-dimethyl-1H-pyrrole-3-carboxamide hydrochloride]	0.232	0.039	0.733
CCCn1c(-c2ccccc2)cc(C(=O)NCCCN2CCN(c3cccc(Cl)c3)CC2)c1C [Example 6, N-(3-(4-(3-chlorophenyl)piperazin-1-yl)propyl)-2-methyl-5-phenyl-1-propyl-1H-pyrrole-3-carboxamide]	0.191	0.273	0.093
CCCn1c(-c2ccccc2)cc(C(=O)N(C)CCCN2CCN(c3cccc(Cl)c3Cl)CC2)c1C [Example 31, N-(3-(4-(2,3-dichlorophenyl)piperazin-1-yl)propyl)-N,2-dimethyl-5-phenyl-1-propyl-1H-pyrrole-3-carboxamide hydrochloride]	0.0332	0.0207	0.102
Cc1c(C(=O)NCCCN2CCN(c3cccc(Cl)c3)CC2)cc(-c2ccccc2)n1-c1ccc(F)cc1 [Example 14, N-(3-(4-(3-chlorophenyl)piperazin-1-yl)propyl)-1-(4-fluorophenyl)-2-methyl-5-phenyl-1H-pyrrole-3-carboxamide]	0.0229	0.443	0.0802
Cc1[nH]c(-c2ccccc2)c(C)c1C(=O)NCCCN1CCN(c2cccc(Cl)c2Cl)CC1 [Example 77, N-(3-(4-(2,3-dichlorophenyl)piperazin-1-yl)propyl)-2,4-dimethyl-5-phenyl-1H-pyrrole-3-carboxamide hydrochloride]	0.039	0.016	0.036
CCn1c(-c2ccccc2)cc(C(=O)NCCCN2CCN(c3cccc(C)c3C)CC2)c1C [Example 5, N-(3-(4-(2,3-dimethylphenyl)piperazin-1-yl)propyl)-1-ethyl-2-methyl-5-phenyl-1H-pyrrole-3-carboxamide]	0.075	0.139	0.0359
Cc1c(C(=O)NCCCN2CCN(c3cccc(Cl)c3Cl)CC2)cc(-c2ccccn2)n1C [Example 92, N-(3-(4-(2,3-dichlorophenyl)piperazin-1-yl)propyl)-1,2-dimethyl-5-(pyridin-2-yl)-1H-pyrrole-3-carboxamide dihydrochloride]	0.043	0.267	0.11
CCCn1c(C)c(C(=O)NCCCN2CCN(c3cccc(Cl)c3Cl)CC2)c(C)c1-c1ccccc1 [Example 81, N-(3-(4-(2,3-dichlorophenyl)piperazin-1-yl)propyl)-2,4-dimethyl-5-phenyl-1-propyl-1H-pyrrole-3-carboxamide hydrochloride]	0.025	0.075	0.078
